US6525070B2, “Bipiperidine derivatives as modulators of CCR3 activity and as H1 antagonists” (AstraZeneca AB, priority 2000, dated 2003)

With COc1cc(C(=O)N2CCC(N3CCC(Oc4ccc(Cl)cc4C)CC3)CC2)ccc1N.O=C(O)C(F)(F)F.O=C(O)C(F)(F)F the melting point was 110 to 111 °C.
With CC(=O)O.COc1cc(C(=O)N2CCC(N3CCC(Oc4ccc(Cl)c(Cl)c4)CC3)CC2)ccc1N the melting point was 181 to 182 °C.
For CS(=O)(=O)c1cccc(C(=O)N2CCC(N3CCC(Oc4ccc(C(F)(F)F)cc4C#N)CC3)CC2)c1.O=C(O)C(F)(F)F, the melting point was 140 to 142 °C.
Cc1cccc(OC2CCN(C3CCN(C(=O)c4cccc(S(C)(=O)=O)c4)CC3)CC2)n1.O=C(O)C(F)(F)F gave a melting point of 94 to 95 °C.
With CS(=O)(=O)n1cc(C(=O)N2CCC(N3CCC(Oc4ccc(Cl)c(Cl)c4)CC3)CC2)c2ccccc21.Cl the melting point was 104 to 105 °C.
CC(=O)O.CS(=O)(=O)c1cccc(C(=O)N2CCC(N3CCC(Oc4ccc(Cl)c(Cl)c4)CC3)CC2)c1 gave a melting point of 111 to 112 °C.
Cc1cc(Cl)ccc1OC1CCN(C2CCN(C(=O)c3cccc(S(C)(=O)=O)c3)CC2)CC1 [Compound 1 of Table IV, [4-(4-chloro-2-methyl-phenoxy)-[1,4′]bipiperidinyl-1′-yl]-(3-methanesulfonyl-phenyl)-methanone] showed a melting point of 64 to 65 °C.
With O=S(=O)(c1ccc(-c2ccccn2)s1)N1CCC(N2CCC(Oc3ccc(F)c(F)c3)CC2)CC1 [Compound 3 of Table II, 4-(3,4-difluoro-phenoxy)-1′-(5-pyridin-2-yl-thiophene-2-sulfonyl)-[1,4′]bipiperidinyl] the melting point was 126 to 127 °C.
CS(=O)(=O)c1cccc(NC(=O)N2CCC(N3CCC(Oc4ccc(Cl)c(Cl)c4)CC3)CC2)c1 [Compound 54 of Table IV, 4-(3,4-dichloro-phenoxy)-[1,4′]bipiperidinyl-1′-carboxylic acid (3-methanesulfonyl-phenyl)-amide] showed a melting point of 73 to 75 °C.
O=S(=O)(c1ccc(-c2ccccn2)s1)N1CCC(N2CCC(Oc3ccc(Cl)c(Cl)c3)CC2)CC1 [Compound 280 of Table I, 4-(3,4-dichloro-phenoxy)-1′-(5-pyridin-2-yl-thiophene-2-sulfonyl)-[1,4′]bipiperidinyl] gave a melting point of 149 to 150 °C.
In the case of CS(=O)(=O)c1ccccc1C(=O)N1CCC(N2CCC(Oc3ccc(Cl)c(Cl)c3)CC2)CC1 [Compound 293 of Table I, [4-(3,4-dichloro-phenoxy)-[1,4′]bipiperidinyl-1′-yl]-(2-methanesulfonyl-phenyl)-methanone], the melting point is reported as 78 to 80 °C.
Compound O=C(Nc1ccccc1)N1CCC(N2CCC(Oc3ccc(Cl)c(Cl)c3)CC2)CC1 [Compound 309 of Table IV, 4-(3,4-dichloro-phenoxy)-[1,4′]bipiperidinyl-1′-carboxylic acid phenylamide] has a melting point of 111 to 112 °C.
With CS(=O)(=O)c1ccc(C(=O)N2CCC(N3CCC(Oc4ccc(Cl)c(Cl)c4)CC3)CC2)s1 [Compound 332 of Table I, [4-(3,4-dichloro-phenoxy)-[1,4′]bipiperidinyl-1′-yl]-(2-methanesulfonyl-thiophen-5-yl)-methanone] the melting point was 82 to 83 °C.
For CCn1cc(C(=O)N2CCC(N3CCC(Oc4ccc(Cl)c(Cl)c4)CC3)CC2)c(=O)c2ccc(C)nc21 [Compound 534 of Table I, 3-[4-(3,4-dichloro-phenoxy)-[1,4′]bipiperidinyl-1′-carbonyl]-1-ethyl-7-methyl-1H-[1,8]naphthyridin-4-one], the melting point was 189 to 190 °C.
Compound CS(=O)(=O)Nc1cccc(C(=O)N2CCC(N3CCC(Oc4ccc(Cl)c(Cl)c4)CC3)CC2)c1 [Compound 583 of Table I, N-{3-[4-(3,4-dichloro-phenoxy)-[1,4′]bipiperidinyl-1′-carbonyl]-phenyl}-methanesulfonamide] has a melting point of 150 to 152 °C.
For CS(=O)(=O)Nc1ccccc1C(=O)N1CCC(N2CCC(Oc3ccc(Cl)c(Cl)c3)CC2)CC1 [Compound 587 of Table I, N-{2-[4-(3,4-dichloro-phenoxy)-[1,4′]bipiperidinyl-1′-carbonyl]-phenyl}-methanesulfonamide], the melting point was 219 to 220 °C.
Work on O=C(C(CN1CCNCC1)c1ccccc1)N1CCC(N2CCC(Oc3ccc(Cl)c(Cl)c3)CC2)CC1 (centres unmarked) [Compound 595 of Table I, 1-[4-(3,4-dichloro-phenoxy)-[1,4′]bipiperidinyl-1′-yl]-2-phenyl-3-piperazin-1-yl-propan-1-one] yielded a melting point of 76 to 77 °C.
